Patent US12565474B2, “Discovery, total synthesis, and bioactivity of doscadenamides” (priority 2019, dated 2026)
“Also recorded” adds a separate entry of the source.

How the values were obtained:
[1] = system: pTIM5319 (lacks the AHL-binding site LasR); assay: Related reporter pTIM5319 lacking a functional AHL-binding domain; format: cell-based; details: E. coli, 37° C., 6 h
Method: (§1) FIG. 16. depicts activating activity of doscadenamide A (1a) in related reporter pTIM5319, which lacks a functional AHL-binding domain. The bacterial cultures were treated with 1a in a dose-response manner and solvent control at 37° C. for 6 h before fluorescence was measured. Results are expressed as fold activation compared to solvent control. Data are presented as mean±SD, **P<0.01, ****P<0.0001, compared to solvent control using one-way ANOVA (n=3).
(§2) Lett. 1998, 163 (2), 185-192]. […] 2011, 7 (4), 1205-1216]. To validate the activating activity of 1a, its effect on wild-type P. aeruginosa was tested. […] For comparison, the other three diastereomers 1b, 1c and 1d were also included in the test. Such superagonists are expected to artificially regulate virulence factor production such as pyocyanin and activate QS at lower bacterial cell populations, thus to stimulate the host immune system to clear the infection when fewer bacterial cells are present [Galloway, W.; Hodgkinson, J.; Bovvden, S.; Welch, M.; Spring, D., Trends Microbiol. 2012, 20 (9), 449-458].
Doscadenamide A (1a) activates QS, which was established using the 3-oxo-C12-HSL-responsive reporter plasmid pSB1075, a plasmid encoding LasR (the C12 HSL receptor in Pseudomonas aeruginosa) and containing a light-producing luxCDABE cassette expressed in Escherichia coli. […]

[2] = system: wild-type P. aeruginosa; assay: Pyocyanin production in wild-type P. aeruginosa; format: cell-based, Pseudomonas aeruginosa; details: 10 PM, 6 h shaking at 37° C.
Method: Data are presented as mean±SD, **P<0.01, ****P<0.0001, compared to solvent control using one-way ANOVA (n=3).
as §2

[3] = system: P. aeruginosa mutant PAO-JP1; assay: Pyocyanin quantification in P. aeruginosa strain PAO-JP1; format: cell-based, Pseudomonas aeruginosa; details: PAO-JP1, 6 h
Method: To follow up our previous study regarding the QS modulatory activity of doscadenamide A (1a) on wild-type P. aeruginosa and extend reporter gene assay studies, we examined the QS activation of different doscadenamides using a QS system deficient strain, PAO-JP1. PAO-JP1 is a P. aeruginosa mutant with a lasl deletion that cannot produce C12. […]
[…] The culture was then spun down for 10 min at the maximum speed, and the supernatant was collected and filtered using […] Eppendorf filters. 500 μL of the sterile supernatant were added to 500 μL CHCl3 in an Eppendorf tube. Tube shaking allowed for the extraction of pyocyanin in the CHCl3 layer. This layer was then added to 150 μL of 0.2 N HCl in another Eppendorf tube. After shaking, the aqueous layer and the organic layer were separated. 100 μL of the aqueous layer were transferred to a clear bottomed 384-well plate and the absorbance was measured at […] to quantify the pyocyanin production. Data was analyzed using GraphPad Prism 5 software.

[4] = system: V. harveyi BB120 strain; assay: Bioluminescence modulation in V. harveyi; format: cell-based, Vibrio harveyi; details: for QS activation (bioluminescence, ΔLUM normalized by OD600): concentration range 10-200 PM
Method: FIGS. 19A-C depict QS activity in different systems. FIG. 19A is a graph showing activity of doscadenamide A (1a) in E. coli reporter gene assay using pSB1075 (wild-type) and point mutants (Y56F, W60F and D73N). […] C12 was used as the positive control. […] AI-1 is a reported quorum sensing autoinducer and was used as the positive control.
Bioluminescent V. harveyi BB120 strain (wild-ype) was cultivated in AB media overnight (15-16 h) at 30° C. (OD600 is about 2.0-2.5). The overnight cultivated strain […] was diluted to 10 mL by AB media (OD600<0.1). 100 μL the diluted BB120 strain was distributed to each well of 96-well white plate. The solution of each tested compound in DMSO (0.5 μL) at different concentration was added to BB120 cultures on plate. Triplicate was conducted for each compound and each concentration. After addition, bacterial cultures were incubated at 30° C. for 7 hours. Then the emitted luminescence and OD600 was measured by BioTek Synergy H1 plate reader. AI-1 and DMSO were used as positive control and negative control, respectively.

[5] = system: PARP; assay: Western blot of PARP cleavage in MDA-MB-231 cells with TRAIL; format: cell-based; details: MDA-MB-231, TRAIL 20 ng/mL, compound 50 μM (FIG. 20E)
[6] = system: MDA-MB-231 cells; assay: MDA-MB-231 cell viability (MTT) with TRAIL, synergy evaluation; details: for cell viability after pretreatment and TRAIL co-treatment: 3 h pretreatment (5 μM, 2 μM); for cell viability after pretreatment and TRAIL co-treatment / synergistic effect with TRAIL / sensitization (Bliss independence): then TRAIL 20 ng/mL for 24 h; for synergistic effect with TRAIL / sensitization (Bliss independence): 3 h pretreatment; for cytotoxicity compared to doscadenamide A (1a): MDA-MB-231
Method: MDA-MB-231 cell viability after 3 h pretreatment with DMSO (solvent control), C12 as well as doscadenamide A (1a) and its structural analogs, B) 5 μM and C) 2 μM followed by combined TRAIL (20 ng/mL) treatment for 24 h. […] MDA-MB-231 cells were treated with doscadenamide A (1a) and its structural analogs for 3 h, followed by treatment with TRAIL (20 ng/mL) for 24 h, C12 was included as positive control. “A Bliss independence” is the difference between observed growth inhibition and Bliss expectation. Values greater than zero represent a synergistic response, represented as red in the figure. Bliss expectation is C=(A+B)−(A×B), where A and B are the growth inhibition fractions of two compounds at a given dose. Cell viability was quantified using MTT assay.
MDA-MB-231 cells were pretreated with C12, doscadenamides or solvent control for 3 h and then stimulated with TRAIL for 24 h (FIGS. 20B and 20C). We measured cell viability and calculated the A Bliss independence of each compound with TRAIL.

[7] = biological target: T1, LasR (Pseudomonas aeruginosa, UniProt P25084); assay: Quorum sensing reporter assay, pSB1075 (lasR-luxCDABE) expressed in E. coli; format: cell-based; parameters: expressed in transfected cells; host or cells: Escherichia coli carrying plasmid pSB1075; details: 37° C., 6 h, dose-response, vs solvent control
Method: as §1, with “15.” for “16.”, “pSB1075, the lasR-luxCDABE” for “related”, “constructs expressed in E. coli.” for “pTIM5319, which lacks a functional AHL-binding domain.”
as §2, with “449-458]. […]” for “449-458].”
Doscadenamide A (1a) in a dose-response manner and EtOH control were added to the corresponding wells in a 96-well plate and the solvent was allowed to evaporate. […] The plate was incubated at 37° C. for 6 h before the measurement of luminescence.

[8] = system: cancer cells; details: cited from earlier work
[9] = biological target: T1, LasR; details: cited from earlier work

T1 sequence (P25084 whole entry, the tested form may be a part): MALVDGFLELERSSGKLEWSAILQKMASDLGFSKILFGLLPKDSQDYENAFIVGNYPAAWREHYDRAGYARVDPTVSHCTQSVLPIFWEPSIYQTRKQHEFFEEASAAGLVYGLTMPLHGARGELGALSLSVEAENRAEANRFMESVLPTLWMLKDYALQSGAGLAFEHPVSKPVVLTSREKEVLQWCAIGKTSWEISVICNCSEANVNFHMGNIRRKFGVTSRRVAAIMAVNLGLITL

Compound | QS activation (pyocyanin production normalized for cell number) ([3]; 100 μM) [fold] | QS activation (bioluminescence, ΔLUM normalized by OD600) [4] | synergistic effect with TRAIL / sensitization (Bliss independence) [6] | cytotoxicity compared to doscadenamide A (1a) [6] | other results
C#CCCCC[C@@H](C)C(=O)NCCCC[C@H]1C(OC)=CC(=O)N1C(=O)[C@H](C)CCCCC#C [Compound 1a, (R)-N-(4-((S)-3-methoxy-1-((R)-2-methyloct-7-ynoyl)-5-oxo-2,5-dihydro-1H-pyrrol-2-yl)butyl)-2-methyloct-7-ynamide] | 3 | activating across the concentration range tested | can effectively improve TRAIL-induced apoptosis |  | activation of related reporter pTIM5319 [1]: abolished; production of QS pigment pyocyanin / QS modulation [2]: elevated; PARP cleavage (Western blot) [5]: evident presence of cleaved PARP; cell viability after pretreatment and TRAIL co-treatment [6]: clear decrease in cell viability; activation of 3-oxo-C12-HSL-responsive reporter plasmid pSB1075 (QS activation) [7]: can activate; also recorded: activates QS
C=CCCCC[C@@H](C)C(=O)NCCCC[C@H]1C(OC)=CC(=O)N1C(=O)[C@H](C)CCCCC=C [Compound 1f, Doscadenamide F] |  |  |  | improved cytoxicity | QS activating activity at <100 μM [4]: reduced
C#CCCCCCC(=O)NCCCC[C@H]1C(OC)=CC(=O)N1C(=O)[C@H](C)CCCCC#C [Compound 1j, Doscadenamide J] |  |  |  |  | QS activating activity at <100 μM [4]: reduced
CCCCCC[C@@H](C)C(=O)NCCCC[C@H]1C(OC)=CC(=O)N1C(=O)[C@H](C)CCCCCC [Compound 1k, Doscadenamide S4] |  |  | best agents to sensitize MDA-MB-231 cells | improved cytoxicity | 
C#CCCCC[C@@H](C)C(=O)NCCCC[C@@H]1NC(=O)C=C1OC [Compound 2a, Doscadenamide S8] |  | consistently inhibited QS signaling | synergistic effect with TRAIL, except 2a |  | QS activation (pyocyanin production) without normalization for bacterial cell count [3]: did not show any level of activation; QS-activating effect (pyocyanin production normalized for cell number), in words ([3]; 100 μM): minimal QS-activating effect; also recorded: essentially inactive; PARP cleavage (Western blot) [5]: no effect; cell viability after pretreatment and TRAIL co-treatment [6]: no effect on cell viability
C#CCCCC[C@@H](C)C(=O)N1C(=O)C=C(OC)[C@@H]1CCCCNC(=O)OC(C)(C)C [Compound 3a, Doscadenamide S10] | 3 | activating across the concentration range tested |  |  | 
C=CCCCC[C@@H](C)C(=O)N1C(=O)C=C(OC)[C@@H]1CCCCNC(=O)OC(C)(C)C [Compound 3b, Doscadenamide S11] | 4 |  |  | improved cytoxicity | 
CCCCCC[C@@H](C)C(=O)N1C(=O)C=C(OC)[C@@H]1CCCCNC(=O)OC(C)(C)C [Compound 3c, Doscadenamide S12] | 5 | only had a minor activating trend | best agents to sensitize MDA-MB-231 cells | improved cytoxicity | cell viability after pretreatment and TRAIL co-treatment [6]: enhanced activity
CCCCCCCCCC(=O)CC(=O)N[C@H]1CCOC1=O [Compound C12, reference compound] | ~3 |  |  |  | synergistic effect on TRAIL-induced apoptosis reported in the literature [8]: synergistic effect on TRAIL-induced apoptosis
CCCCCCC[C@@H]1C[C@H]1CCC(=O)O [lyngbyoic acid] |  |  |  |  | LasR / quorum sensing modulation reported in the literature [9]: strongly inhibit the activity of LasR
C=C(CCCCC)CCCC(=O)O [pitinoic acid A] |  |  |  |  | LasR / quorum sensing modulation reported in the literature [9]: P. aeruginosa quorum sensing inhibitor
TRAIL: tumor necrosis factor-related apoptosis-inducing ligand, a TNF family cytokine |  |  |  |  | fraction of cells undergoing apoptotic death ([6]; MDA-MB-231, TRAIL alone 20 ng/mL): approximately 20%; cell viability remaining ([6]; MDA-MB-231, TRAIL alone 500 ng/mL): 50%
